By half-life is commonly meant the time in which the quantity being followed falls by half. The term bioavailability denotes dose-corrected exposure relative to a reference, in per cent. Broadly, the pIC50 is the IC50 on a negative log10 scale, so that one unit is a factor of ten. Low values mean a high IC50, high ones a low IC50. In general, inhibition refers to the percentage by which the read-out fell short of the control. A low value points to a response near the control.

Consider four compounds from ChEMBL document CHEMBL1759974, “Discovery of triazine-benzimidazoles as selective inhibitors of mTOR” (Bioorg Med Chem Lett, 2011).

pIC50: −log10 of the molar value.

Data set [1] can be described thus: Half life in Sprague-Dawley rat at 1 mg/kg, iv. To be noted: in vivo. Format: ADME, organism-based. Set-up: dose 1 mg/kg, route intravenous.
Data set [2] can be described thus: Oral bioavailability in Sprague-Dawley rat at 2 mg/kg. Format: ADME, organism-based. To be noted: in vivo.
Data set [3] is described as follows: Clearance in Sprague-Dawley rat at 1 mg/kg, iv and 2 mg/kg, po. To be noted: in vivo. It counts as ADME, organism-based.
Data set [4] in a line: Plasma protein binding in Sprague-Dawley rat at 1 mg/kg, iv and 2 mg/kg, po. It counts as ADME, organism-based. To be noted: read-out: PPB (converted).
For data set [5], the target named is T1, Phosphatidylinositol 4,5-bisphosphate 3-kinase catalytic subunit delta isoform (Homo sapiens, UniProt O00329).
T1 sequence (O00329 whole entry): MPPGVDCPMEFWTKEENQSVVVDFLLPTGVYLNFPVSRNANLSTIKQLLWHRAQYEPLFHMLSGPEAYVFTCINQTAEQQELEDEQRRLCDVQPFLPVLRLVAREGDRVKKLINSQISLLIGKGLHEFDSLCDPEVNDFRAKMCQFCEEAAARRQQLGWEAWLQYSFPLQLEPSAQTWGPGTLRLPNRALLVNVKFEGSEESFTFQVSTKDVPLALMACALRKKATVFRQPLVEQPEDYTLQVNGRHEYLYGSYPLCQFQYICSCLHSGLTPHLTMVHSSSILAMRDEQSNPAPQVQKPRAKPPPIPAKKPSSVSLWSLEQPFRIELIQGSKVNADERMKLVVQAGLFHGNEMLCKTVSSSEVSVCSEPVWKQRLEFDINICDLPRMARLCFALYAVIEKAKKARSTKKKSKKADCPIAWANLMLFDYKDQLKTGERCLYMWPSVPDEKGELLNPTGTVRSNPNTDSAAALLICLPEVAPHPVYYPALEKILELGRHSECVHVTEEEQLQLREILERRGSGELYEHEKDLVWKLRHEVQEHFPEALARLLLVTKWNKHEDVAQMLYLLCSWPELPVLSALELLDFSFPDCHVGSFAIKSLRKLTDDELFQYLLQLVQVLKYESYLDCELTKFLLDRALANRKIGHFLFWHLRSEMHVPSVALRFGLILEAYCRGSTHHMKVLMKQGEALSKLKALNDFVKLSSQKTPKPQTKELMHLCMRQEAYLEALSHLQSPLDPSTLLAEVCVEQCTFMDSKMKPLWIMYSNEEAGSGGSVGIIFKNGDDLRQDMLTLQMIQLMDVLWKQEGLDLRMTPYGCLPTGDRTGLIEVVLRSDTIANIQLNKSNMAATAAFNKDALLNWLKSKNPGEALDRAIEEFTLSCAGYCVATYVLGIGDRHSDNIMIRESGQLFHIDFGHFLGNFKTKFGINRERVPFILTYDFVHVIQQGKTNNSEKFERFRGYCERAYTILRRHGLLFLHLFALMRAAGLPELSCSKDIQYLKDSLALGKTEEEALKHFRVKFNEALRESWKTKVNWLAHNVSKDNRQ

For data set [6], the target named is T2, Serine/threonine-protein kinase mTOR (Homo sapiens, UniProt P42345).
Data set [7] relates to Rattus norvegicus. In words: AUC in Sprague-Dawley rat at 1 mg/kg, iv. Format: ADME, organism-based, Plasma. Set-up: dose 1 mg/kg, route intravenous. The following applies: in vivo.
The target in data set [8] is Phosphatidylinositol 4,5-bisphosphate 3-kinase catalytic subunit beta isoform (Homo sapiens, UniProt P42338).
Data set [9] has as its target T2, Serine/threonine-protein kinase mTOR. The source holds these as a separate data set.
For data set [10] the target is unchanged. The source holds these as a separate data set.
Description: Inhibition of mTOR in human U-87 cells assessed as inhibition of phosphorylation of AKT at S473
Data set [11] in a line: Volume of distribution at steady state in Sprague-Dawley rat at 1 mg/kg, iv and 2 mg/kg, po. It counts as ADME, organism-based. The following applies: in vivo, read-out: Vdss.
Data set [12] addresses Phosphatidylinositol 4,5-bisphosphate 3-kinase catalytic subunit gamma isoform (Homo sapiens, UniProt P48736).
Data set [13] has as its system Rattus norvegicus. In words: AUC in Sprague-Dawley rat at 5 mg/kg, po. It counts as ADME, organism-based, Plasma. The following applies: in vivo. Set-up: dose 5 mg/kg, route oral.
The target of data set [14] is Phosphatidylinositol 4,5-bisphosphate 3-kinase catalytic subunit alpha isoform (Homo sapiens, UniProt P42336).
The nature of data set [15]: Half life in Sprague-Dawley rat at 5 mg/kg, po. To be noted: in vivo. Set-up: dose 5 mg/kg, route oral. Format: ADME, organism-based.
Data set [16] addresses Casein kinase II subunit alpha (Homo sapiens) (UniProt P68400). In words: Inhibition of CSNK2A1 at 1 uM relative to control.
For data set [17], the target named is Receptor-type tyrosine-protein kinase FLT3 (Homo sapiens) (UniProt P36888). In words: Inhibition of FLT3 at 1 uM relative to control.
Sequence of Receptor-type tyrosine-protein kinase FLT3 (Homo sapiens) (P36888 whole entry): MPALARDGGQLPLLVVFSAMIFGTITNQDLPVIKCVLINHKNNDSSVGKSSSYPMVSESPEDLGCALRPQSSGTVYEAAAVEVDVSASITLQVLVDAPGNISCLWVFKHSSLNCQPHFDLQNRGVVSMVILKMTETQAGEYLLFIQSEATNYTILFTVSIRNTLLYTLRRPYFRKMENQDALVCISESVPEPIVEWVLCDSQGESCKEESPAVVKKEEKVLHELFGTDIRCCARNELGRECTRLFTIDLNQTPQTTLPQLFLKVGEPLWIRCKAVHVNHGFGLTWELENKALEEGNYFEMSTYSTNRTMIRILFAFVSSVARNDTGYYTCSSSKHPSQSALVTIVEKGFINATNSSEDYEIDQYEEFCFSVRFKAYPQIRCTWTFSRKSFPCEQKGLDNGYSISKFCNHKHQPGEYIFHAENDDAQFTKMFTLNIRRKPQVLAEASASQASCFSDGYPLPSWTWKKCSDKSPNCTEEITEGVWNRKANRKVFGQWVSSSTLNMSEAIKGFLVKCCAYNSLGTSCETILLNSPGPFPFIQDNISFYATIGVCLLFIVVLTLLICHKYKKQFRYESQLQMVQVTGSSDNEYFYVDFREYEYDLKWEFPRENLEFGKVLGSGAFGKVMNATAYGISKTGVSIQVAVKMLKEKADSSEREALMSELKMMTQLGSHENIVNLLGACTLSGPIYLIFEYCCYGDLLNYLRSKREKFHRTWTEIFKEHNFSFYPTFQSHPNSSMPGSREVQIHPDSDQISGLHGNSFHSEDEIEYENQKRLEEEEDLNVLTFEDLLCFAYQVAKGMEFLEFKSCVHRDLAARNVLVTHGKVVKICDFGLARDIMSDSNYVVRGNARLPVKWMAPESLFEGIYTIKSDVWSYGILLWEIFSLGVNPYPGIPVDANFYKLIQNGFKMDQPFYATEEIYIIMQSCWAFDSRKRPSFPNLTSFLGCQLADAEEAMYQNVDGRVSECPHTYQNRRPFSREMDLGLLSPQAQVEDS

Sequence of Phosphatidylinositol 4,5-bisphosphate 3-kinase catalytic subunit beta isoform (P42338 whole entry, canonical isoform): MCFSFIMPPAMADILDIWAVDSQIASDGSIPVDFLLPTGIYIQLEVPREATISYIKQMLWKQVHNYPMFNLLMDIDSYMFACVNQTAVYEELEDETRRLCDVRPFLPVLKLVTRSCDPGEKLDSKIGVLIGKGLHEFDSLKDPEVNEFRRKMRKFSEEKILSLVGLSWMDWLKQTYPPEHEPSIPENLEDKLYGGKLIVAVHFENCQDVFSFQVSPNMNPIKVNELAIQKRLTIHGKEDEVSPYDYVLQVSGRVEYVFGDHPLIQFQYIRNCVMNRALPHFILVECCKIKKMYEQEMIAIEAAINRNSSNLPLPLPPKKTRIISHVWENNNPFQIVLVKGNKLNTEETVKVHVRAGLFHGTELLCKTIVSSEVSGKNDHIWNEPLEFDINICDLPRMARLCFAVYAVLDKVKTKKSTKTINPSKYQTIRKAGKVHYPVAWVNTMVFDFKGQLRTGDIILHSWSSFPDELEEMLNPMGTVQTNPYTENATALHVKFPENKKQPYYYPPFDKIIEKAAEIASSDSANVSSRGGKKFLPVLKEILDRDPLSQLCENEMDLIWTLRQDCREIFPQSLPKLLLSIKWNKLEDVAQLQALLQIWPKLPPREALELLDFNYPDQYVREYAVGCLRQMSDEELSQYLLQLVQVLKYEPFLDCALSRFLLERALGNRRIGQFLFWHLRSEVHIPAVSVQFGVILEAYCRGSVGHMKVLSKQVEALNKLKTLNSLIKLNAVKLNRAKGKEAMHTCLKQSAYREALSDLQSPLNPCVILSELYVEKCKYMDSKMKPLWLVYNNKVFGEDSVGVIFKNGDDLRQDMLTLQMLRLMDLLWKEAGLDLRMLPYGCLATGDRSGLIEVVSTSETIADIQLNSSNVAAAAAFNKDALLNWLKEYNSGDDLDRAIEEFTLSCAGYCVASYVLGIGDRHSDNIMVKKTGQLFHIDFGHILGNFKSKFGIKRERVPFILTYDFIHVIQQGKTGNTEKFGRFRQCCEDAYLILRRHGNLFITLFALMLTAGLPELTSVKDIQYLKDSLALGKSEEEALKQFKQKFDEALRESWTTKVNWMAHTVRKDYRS
Sequence of Phosphatidylinositol 4,5-bisphosphate 3-kinase catalytic subunit alpha isoform (P42336 whole entry, canonical isoform): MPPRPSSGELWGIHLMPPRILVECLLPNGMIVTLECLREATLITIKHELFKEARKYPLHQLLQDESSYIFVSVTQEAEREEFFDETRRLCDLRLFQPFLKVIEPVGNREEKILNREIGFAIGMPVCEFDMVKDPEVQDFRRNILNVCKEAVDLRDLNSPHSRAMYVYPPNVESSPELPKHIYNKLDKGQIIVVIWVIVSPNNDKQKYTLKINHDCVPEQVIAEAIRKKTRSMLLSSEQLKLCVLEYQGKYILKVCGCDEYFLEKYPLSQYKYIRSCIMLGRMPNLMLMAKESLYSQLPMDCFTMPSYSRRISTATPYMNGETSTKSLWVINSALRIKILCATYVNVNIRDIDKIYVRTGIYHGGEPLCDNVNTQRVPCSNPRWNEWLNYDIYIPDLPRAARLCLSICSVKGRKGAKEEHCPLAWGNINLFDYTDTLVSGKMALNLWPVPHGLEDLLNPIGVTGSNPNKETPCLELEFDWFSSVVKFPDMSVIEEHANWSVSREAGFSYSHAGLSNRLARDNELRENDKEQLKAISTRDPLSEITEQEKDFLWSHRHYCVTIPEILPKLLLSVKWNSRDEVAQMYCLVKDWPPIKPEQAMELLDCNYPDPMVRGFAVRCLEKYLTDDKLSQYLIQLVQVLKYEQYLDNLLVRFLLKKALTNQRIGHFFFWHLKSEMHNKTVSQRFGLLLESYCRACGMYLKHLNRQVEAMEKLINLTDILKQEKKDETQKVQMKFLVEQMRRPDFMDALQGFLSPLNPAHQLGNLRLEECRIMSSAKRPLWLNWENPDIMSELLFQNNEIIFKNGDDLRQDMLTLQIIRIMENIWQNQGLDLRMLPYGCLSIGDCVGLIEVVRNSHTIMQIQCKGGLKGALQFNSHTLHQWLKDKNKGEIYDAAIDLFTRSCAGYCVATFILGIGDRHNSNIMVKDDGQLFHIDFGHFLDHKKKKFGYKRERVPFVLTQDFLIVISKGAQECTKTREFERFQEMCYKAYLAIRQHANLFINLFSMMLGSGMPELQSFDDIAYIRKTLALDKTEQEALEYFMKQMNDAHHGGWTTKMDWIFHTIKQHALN
Sequence of Phosphatidylinositol 4,5-bisphosphate 3-kinase catalytic subunit gamma isoform (P48736 whole entry, canonical isoform): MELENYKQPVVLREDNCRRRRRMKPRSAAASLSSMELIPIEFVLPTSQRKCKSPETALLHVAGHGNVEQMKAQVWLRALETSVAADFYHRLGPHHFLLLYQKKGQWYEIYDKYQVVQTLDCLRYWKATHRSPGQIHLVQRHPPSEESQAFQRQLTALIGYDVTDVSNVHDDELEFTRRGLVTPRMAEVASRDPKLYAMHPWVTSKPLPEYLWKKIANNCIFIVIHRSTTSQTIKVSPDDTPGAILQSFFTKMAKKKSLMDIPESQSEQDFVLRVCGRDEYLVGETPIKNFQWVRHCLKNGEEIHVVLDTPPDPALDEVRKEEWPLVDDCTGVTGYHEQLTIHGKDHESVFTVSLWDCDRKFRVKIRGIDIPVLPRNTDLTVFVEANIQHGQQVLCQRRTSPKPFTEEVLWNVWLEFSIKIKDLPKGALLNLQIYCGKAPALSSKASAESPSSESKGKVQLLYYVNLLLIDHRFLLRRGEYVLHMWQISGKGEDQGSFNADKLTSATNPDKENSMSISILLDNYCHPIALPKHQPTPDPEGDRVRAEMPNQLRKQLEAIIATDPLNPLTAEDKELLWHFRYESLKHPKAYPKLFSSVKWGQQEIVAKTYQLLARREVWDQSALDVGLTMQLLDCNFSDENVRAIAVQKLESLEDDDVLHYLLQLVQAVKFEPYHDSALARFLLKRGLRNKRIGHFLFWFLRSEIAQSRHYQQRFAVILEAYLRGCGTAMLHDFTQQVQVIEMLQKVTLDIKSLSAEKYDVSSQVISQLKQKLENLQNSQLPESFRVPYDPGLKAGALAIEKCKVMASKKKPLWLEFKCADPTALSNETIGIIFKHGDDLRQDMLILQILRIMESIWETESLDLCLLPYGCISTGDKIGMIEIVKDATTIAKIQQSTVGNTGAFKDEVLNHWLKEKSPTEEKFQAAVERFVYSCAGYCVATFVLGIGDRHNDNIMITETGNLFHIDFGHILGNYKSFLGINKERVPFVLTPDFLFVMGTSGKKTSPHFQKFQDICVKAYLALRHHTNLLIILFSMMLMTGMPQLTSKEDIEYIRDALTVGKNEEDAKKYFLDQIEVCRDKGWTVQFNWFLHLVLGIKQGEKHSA
Sequence of Casein kinase II subunit alpha (Homo sapiens) (P68400 whole entry, looked up): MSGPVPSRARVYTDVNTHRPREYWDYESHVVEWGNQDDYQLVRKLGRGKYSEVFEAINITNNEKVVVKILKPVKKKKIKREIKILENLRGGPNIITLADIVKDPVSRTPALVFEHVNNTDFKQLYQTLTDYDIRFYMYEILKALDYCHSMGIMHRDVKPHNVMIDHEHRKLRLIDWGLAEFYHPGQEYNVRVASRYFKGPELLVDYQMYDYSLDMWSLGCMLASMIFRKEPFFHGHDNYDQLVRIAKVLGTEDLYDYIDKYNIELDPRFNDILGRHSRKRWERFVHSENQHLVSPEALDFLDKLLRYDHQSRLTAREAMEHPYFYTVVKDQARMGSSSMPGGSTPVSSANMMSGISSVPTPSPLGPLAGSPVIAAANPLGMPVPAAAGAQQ

In data set [1], `Cc1nc(N)nc(-n2c(Nc3ccn[nH]3)nc3cc(F)c(F)cc32)n1` showed a half-life of 42 min. For the same compound, the bioavailability in [2] worked out at 6%. In [3], the clearance was 50 mL/min/kg. Further, in data set [4], the fraction unbound was 0.01. Also, the pIC50 was 6.96 in data set [5]; 6.47 in [6]; 6.00 in data set [8]; 7.62 in data set [9]; 7.35 in data set [10]; 6.60 in [12]. The same compound came in with an AUC in data set [7] of 964 nM. The Vd in [11] was 3 L/kg.

The compound `Cc1nc(NCCC#N)nc(-n2c(Nc3cc[nH]n3)nc3ccccc32)n1` returned an AUC in data set [13] of 1020 nM. Further, the pIC50 is 5.24 in [5]; 5.89 in data set [6]; 5.11 in [14]; 4.81 in data set [8]; 7.22 in data set [9]; 7.09 in data set [10]. Moreover, in data set [12], the pIC50 was 5.21. This compound also had a half-life in data set [15] of 42 min.

`Cc1nc(N)nc(-n2c(Nc3cccc(O)c3)nc3ccccc32)n1`: the pIC50 was 8.52 in data set [5]; 6.82 in data set [6]; 8.40 in data set [14]; 8.05 in [8]; 8.15 in [9]; 8.05 in data set [10]. Besides, the pIC50 in data set [12] was 8.10. The results for the inhibition in [16] and in data set [17] were 15% and 14%, respectively.

Take `CNC(=O)Nc1ccc(Nc2nc3ccccc3n2-c2nc(C)nc(N)n2)cc1`: the pIC50 is 7.96 in data set [5]; 6.47 in data set [6]; 8.22 in data set [14]; 7.77 in data set [8]; 8.70 in data set [9]; 7.96 in data set [10]. For the same compound, in [12], the negative logarithm of the IC50 (pIC50) was 7.89.
